Measured values taken from paper PMC5797126, “Identification of influenza polymerase inhibitors targeting C-terminal domain of PA through surface plasmon resonance screening” (Scientific Reports, 2018).

Tests used:
in vitro [1] = settings: human
influenza RNP = influenza RNP (Influenza A virus, UniProt P15659); experiment: cell-based
[2] = test system: influenza virus (A/WSN/33); experiment: microbe, parasite or virus in culture; format: cell-based; settings: for IC50: unidentified influenza virus, WSN, MDCK, 24 h, read-out: Viral Yield Reduction Assay IC50
in vitro [3] = settings: dog
[4] = biological target: PAC (C-terminal domain of PA, residues 256–716 of A/WSN/33) (Influenza A virus, UniProt P15659); experiment: biochemical; format: binding, influenza A/WSN/33

SMILES	CC50 at 24 h (in vitro [1])	IC50 (influenza RNP)	IC50 [2]	CC50 at 24 h (in vitro [3])	inhibition of influenza viral yield (in words) [2]	cytotoxicity in MDCK cells (in words) (MDCK cells)	Kd [4]
O=c1c2ccccc2nc(NCCN2CCNCC2)n1-c1ccccc1 [Compound S1a, 2-[(2-(Piperazino)ethyl)amino]-3-phenylquinazolin-4(3H)-one]	> 100 µM	–	–	–	–	–	–
Cc1ccccc1-n1c(NCCCN2CCOCC2)nc2ccccc2c1=O [Compound S1b, 2-[(3-Morpholinopropyl)amino]-3-(2-methylphenyl)quinazolin-4(3H)-one]	> 100 µM	87.8 ± 21.8 µM	> 100 µM	> 100 µM	–	–	–
Cc1ccc(-n2c(NCCCN3CCOCC3)nc3ccccc3c2=O)cc1 [Compound S1c, 2-[(3-Morpholinopropyl)amino]-3-(4-methylphenyl)quinazolin-4(3H)-one]	> 100 µM	–	–	–	–	–	–
O=c1c2ccccc2nc(NCCCN2CCOCC2)n1-c1ccc(F)cc1 [Compound S1d, 3-(4-Fluorophenyl)-2-((3-morpholinopropyl)amino)quinazolin-4(3H)-one]	> 100 µM	–	–	–	–	–	–
O=c1c2c(O)c(Cc3ccccc3)c(=O)n(CCO)c2n(-c2ccccc2)c(=O)n1-c1ccccc1 [Compound S2a, 6-benzyl-5-hydroxy-8-(2-hydroxyethyl)-1,3-diphenylpyrido[2,3-d]pyrimidine-2,4,7(1H,3H,8H)-trione]	84.6 ± 17.3 µM	9.69 ± 3 µM	7.74 ± 6.02 µM	> 100 µM	dose-dependent inhibition of influenza virus	slight cytotoxicity at their highest tested concentration	1.77 ± 0.78 µM
CC(c1ccccc1)c1c(O)c2c(=O)n(-c3ccccc3)c(=O)n(-c3ccccc3)c2[nH]c1=O (centres unmarked) [Compound S2b, 5-hydroxy-1,3-diphenyl-6-(1-phenylethyl)pyrido[2,3-d]pyrimidine-2,4,7(1H,3H,8H)-trione]	> 100 µM	14.2 ± 3.6 µM	4.96 ± 3.84 µM	42.8 ± 9 µM	dose-dependent inhibition of influenza virus	–	16.2 ± 8.3 µM
CC(c1ccccc1)c1c(O)c2c(=O)n(-c3ccccc3)c(=O)n(-c3ccccc3)c2n(C)c1=O (centres unmarked) [Compound S2c, 5-hydroxy-8-methyl-1,3-diphenyl-6-(1-phenylethyl)pyrido[2,3-d]pyrimidine-2,4,7(1H,3H,8H)-trione]	97.1 ± 16.1 µM	–	–	–	–	–	–
COc1c(C(C)c2ccccc2)c(=O)n(C)c2c1c(=O)n(-c1ccccc1)c(=O)n2-c1ccccc1 (centres unmarked) [Compound S2d, 5-methoxy-8-methyl-1,3-diphenyl-6-(1-phenylethyl)pyrido[2,3-d]pyrimidine-2,4,7(1H,3H,8H)-trione]	66.6 ± 6.09 µM	> 12.5 µM	3.18 ± 2.44 µM	35.6 ± 9.24 µM	dose-dependent inhibition of influenza virus	–	> 25 µM
CC(=O)n1c(=O)c(C(C)c2ccccc2)c(O)c2c(=O)n(-c3ccccc3)c(=O)n(-c3ccccc3)c21 (centres unmarked) [Compound S2e, 8-acetyl-5-hydroxy-1,3-diphenyl-6-(1-phenylethyl)pyrido[2,3-d]pyrimidine-2,4,7(1H,3H,8H)-trione]	> 100 µM	6.69 ± 7.49 µM	5.11 ± 4.22 µM	53.1 ± 9.25 µM	dose-dependent inhibition of influenza virus	–	50.9 ± 25.5 µM
Cn1c(=O)c(Nc2ccccc2)c(O)c2c(=O)n(-c3ccccc3)c(=O)n(-c3ccccc3)c21 [Compound S2f, 5-hydroxy-8-methyl-1,3-diphenyl-6-(phenylamino)pyrido[2,3-d]pyrimidine-2,4,7(1H,3H,8H)-trione]	> 100 µM	62.4 ± 22.4 µM	> 100 µM	> 100 µM	inability to attenuate influenza virus	–	–
